Reference: patent US10583137B2, “Triazole DAGLα inhibitors” (THE SCRIPPS RESEARCH INSTITUTE, priority 2015, dated 2020)
Read-outs that look alike come from different tables or passages of the source.

Tests used:
[1] = target: DAGLα (hDAGLα-FLAG) (Homo sapiens (Human), UniProt Q9Y4D2); test: competitive ABPP, membrane proteome of transfected HEK293T cells; type: biochemical; details: read-out: DAGLα IC50
Procedure, shortened: (§1)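 HEK293T membrane proteome (1 mg/ml) expressing FLAG-tagged human DAGLα or DAGLβ, treated 30 min at room temperature with compound, then 30 min with HT-01 or FP-Rh probe (1 μM). Bands separated by SDS-PAGE were normalized to DMSO for IC50 by variable-slope fit.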

[2] = target: DAGLβ (hDAGLβ-FLAG) (Homo sapiens (Human), UniProt Q8NCG7); test: as above; type: biochemical; details: read-out: DAGLβ IC50
Procedure, shortened: as §1

[3] = target: T1, DAGLα (Mus musculus (Mouse), UniProt Q6WQJ1); test: gel-based ABPP of mouse brain proteome, endogenous DAGLs, probe compound 58 and HT-01; type: biochemical
Experimental: (§2) Compounds 14 and 17 were evaluated for activity and selectivity against endogenous DAGLs and other serine hydrolases in the mouse brain proteome using a ABPP of mouse brain proteome assay as described in Example 16. These experiments were performed using three different activity-based probesprobe compound 58 (targets DAGLα and DAGLβ), HT-01 (targets DAGLα and DAGLβ), and FP-Rh (broad-spectrum serine hydrolase-directed probe fluorophosphonate-rhodamine).
(§3) Data represent average values±SEM; n=3 per group. […] Compounds 14 and 17 had minimal and negligible binding, respectively, to cannabinoid CB1 (CB1R) and CB2 (CB2R) receptors as measured with a radioligand binding assay (IC50 values>1 μM) (data not shown).

[4] = target: T2, DAGLβ (Mus musculus (Mouse), UniProt Q91WC9); test: as above; type: biochemical
Experimental: as §2, §3

[5] = target: cannabinoid CB2 (CB2R) receptor (Homo sapiens (Human), UniProt P34972); test: radioligand binding assay
Experimental: as §3

[6] = target: ABHD6 (Mus musculus (Mouse), UniProt Q8R2Y0); test: in vivo inhibition, brain tissue analyzed by ABPP; details: mice, intraperitoneal 3-50 mg/kg, 4 hr
Experimental: (§4) Mice were administered DAGL test compounds and the activity and selectivity of compounds 14 and 17 in vivo was assessed.
(§5) Compound 14, 17 or vehicle was administered intraperitoneally to male C57BL/6 mice across a dose range of 3-50 mg/kg. After 4 hr, the mice were sacrificed and brain tissue analyzed by ABPP, generally as described in Example 16, with compound probe 58, HT-01 probe, and FP-Rh probe.

[7] = target: T1, DAGLα; test: in vivo inhibition, brain tissue analyzed by ABPP; details: male C57BL/6 mice, intraperitoneal, 4 hr; for ED50: mouse, ip
Experimental: as §4, §5

[8] = target: T2, DAGLβ; test: in vivo inhibition, brain tissue analyzed by ABPP; details: mice, intraperitoneal 3-50 mg/kg, 4 hr
Experimental: as §4, §5

[9] = tested on: DAGL enzymes; test: brain proteomes of treated mice conjugated to Cy5 fluorophore by CuAAC; type: in vivo, mouse
[10] = target: LIPE (Mus musculus (Mouse), UniProt P54310); test: in vivo ABPP coupled to quantitative mass spectrometry (FP-biotin, ReDiMe); details: brain proteomes of treated mice
Experimental: (§6) The extent of these target profiles were confirmed by performing ABPP coupled to high-resolution, quantitative mass spectrometry (MS). Briefly, brain proteomes from compound and vehicle-treated mice were incubated with the serine hydrolase directed activity-based probe FP-biotin, and probe-labeled enzymes were enriched by streptavidin chromatography, digested on bead with trypsin, and the resulting tryptic peptides modified by reductive dimethylation (ReDiMe) of lysine residues using isotopically heavy and light formaldehyde, respectively. In these experiments, inhibited serine hydrolases are identified as enzymes showing low heavy/light ReDiMe ratios.

[11] = tested on: brain 2-AG and other DAGL-regulated lipids; test: brain lipid profiles of treated mice by LC-MS; type: in vivo, mouse; details: for brain 2-AG levels / brain AA / brain AEA / brain C18:1/C20:4 DAG / brain PGD2 / brain PGE2 / brain SAG: 50 mg/kg i.p., 4 hr post-dosing
Experimental: Brain lipid profiles of mice treated with compounds 14, 17 and control compound 22.
Mice were treated with 50 mg/kg compound (i.p.), followed by lipid profiling using LC-MS at a 4 hr post-dosing. […] This depletion of brain 2-AG in compound 14 and 17-treated mice was dose-dependent (data not shown) and was observed within 2 h after injection. […] The changes in each lipid species were dose-dependent and were absent in compound 22 treated mice (FIGS. 6C, E, G, I, and K).

[12] = tested on: DSE at parallel fiber to Purkinje cell synapses; test: depolarization-induced suppression of excitation (DSE) in acute cerebellar slices; details: purkinje; bath application to cerebellar slices 30 min before recordings; read-out: half-maximal inhibition of DSE
Source text: Various forms of synaptic plasticity are regulated by 2-AG signaling, included depolarization-induced suppression of excitation (DSE) and inhibition (DSI). DSE was examined at parallel fiber (PF) to Purkinje cell (PC) synapses in acute cerebellar slices. A brief depolarization of PCs induced robust transient DSE at PF-PC synapses in vehicle treated cerebellar slices (FIG. 7A).

[13] = target: ABHD2 (Mus musculus (Mouse), UniProt Q9QXM0); test: in vivo ABPP coupled to quantitative mass spectrometry (FP-biotin, ReDiMe); details: brain proteomes of treated mice
Experimental: as §6

[14] = target: PLA2G7 (Mus musculus (Mouse), UniProt Q60963); test: as above; details: brain proteomes of treated mice
Experimental: as §6

T1 sequence (Q6WQJ1 whole entry): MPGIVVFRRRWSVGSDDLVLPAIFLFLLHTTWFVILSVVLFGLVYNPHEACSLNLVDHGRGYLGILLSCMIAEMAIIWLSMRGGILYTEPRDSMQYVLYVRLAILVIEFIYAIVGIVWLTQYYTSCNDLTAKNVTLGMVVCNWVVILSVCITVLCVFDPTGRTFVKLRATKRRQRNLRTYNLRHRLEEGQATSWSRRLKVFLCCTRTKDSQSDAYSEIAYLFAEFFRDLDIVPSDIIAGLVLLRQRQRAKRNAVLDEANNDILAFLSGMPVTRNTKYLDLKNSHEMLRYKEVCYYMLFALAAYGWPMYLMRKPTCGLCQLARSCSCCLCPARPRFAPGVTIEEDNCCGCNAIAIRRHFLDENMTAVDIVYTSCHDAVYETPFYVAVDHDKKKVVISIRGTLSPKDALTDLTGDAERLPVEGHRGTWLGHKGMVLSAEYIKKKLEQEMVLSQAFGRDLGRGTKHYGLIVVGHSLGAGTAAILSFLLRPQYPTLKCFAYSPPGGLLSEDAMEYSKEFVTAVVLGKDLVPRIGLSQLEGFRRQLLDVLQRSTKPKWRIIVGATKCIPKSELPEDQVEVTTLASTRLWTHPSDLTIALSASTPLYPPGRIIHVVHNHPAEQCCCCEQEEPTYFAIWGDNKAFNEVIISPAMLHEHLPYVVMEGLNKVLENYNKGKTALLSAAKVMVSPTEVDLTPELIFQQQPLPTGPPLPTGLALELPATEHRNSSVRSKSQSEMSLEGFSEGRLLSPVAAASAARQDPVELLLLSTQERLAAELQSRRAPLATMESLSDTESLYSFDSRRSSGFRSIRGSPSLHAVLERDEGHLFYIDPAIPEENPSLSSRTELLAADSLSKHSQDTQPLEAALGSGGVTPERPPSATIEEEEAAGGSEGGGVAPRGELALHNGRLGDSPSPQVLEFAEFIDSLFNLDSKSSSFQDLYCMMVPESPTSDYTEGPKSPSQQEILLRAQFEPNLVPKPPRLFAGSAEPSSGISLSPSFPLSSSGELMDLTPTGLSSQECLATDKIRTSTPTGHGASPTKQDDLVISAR
T2 sequence (Q91WC9 whole entry): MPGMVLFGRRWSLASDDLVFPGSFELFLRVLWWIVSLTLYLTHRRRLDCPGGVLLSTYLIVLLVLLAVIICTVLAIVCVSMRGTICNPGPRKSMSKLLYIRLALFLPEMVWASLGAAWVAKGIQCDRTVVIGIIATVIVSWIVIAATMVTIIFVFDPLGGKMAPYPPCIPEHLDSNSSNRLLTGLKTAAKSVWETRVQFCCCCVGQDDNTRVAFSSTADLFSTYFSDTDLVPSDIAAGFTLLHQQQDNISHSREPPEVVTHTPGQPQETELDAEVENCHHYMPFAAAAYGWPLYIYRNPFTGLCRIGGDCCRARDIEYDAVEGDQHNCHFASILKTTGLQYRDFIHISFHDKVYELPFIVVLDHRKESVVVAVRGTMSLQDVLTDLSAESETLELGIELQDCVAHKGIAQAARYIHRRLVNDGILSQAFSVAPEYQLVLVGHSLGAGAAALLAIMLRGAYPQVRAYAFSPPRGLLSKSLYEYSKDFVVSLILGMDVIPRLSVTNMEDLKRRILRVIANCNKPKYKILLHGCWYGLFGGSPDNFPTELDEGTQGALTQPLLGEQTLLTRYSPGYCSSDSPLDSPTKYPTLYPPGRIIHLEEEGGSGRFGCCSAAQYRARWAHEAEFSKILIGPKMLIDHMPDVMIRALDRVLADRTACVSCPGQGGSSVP
Chain of cannabinoid CB2 (CB2R) receptor (P34972 whole entry): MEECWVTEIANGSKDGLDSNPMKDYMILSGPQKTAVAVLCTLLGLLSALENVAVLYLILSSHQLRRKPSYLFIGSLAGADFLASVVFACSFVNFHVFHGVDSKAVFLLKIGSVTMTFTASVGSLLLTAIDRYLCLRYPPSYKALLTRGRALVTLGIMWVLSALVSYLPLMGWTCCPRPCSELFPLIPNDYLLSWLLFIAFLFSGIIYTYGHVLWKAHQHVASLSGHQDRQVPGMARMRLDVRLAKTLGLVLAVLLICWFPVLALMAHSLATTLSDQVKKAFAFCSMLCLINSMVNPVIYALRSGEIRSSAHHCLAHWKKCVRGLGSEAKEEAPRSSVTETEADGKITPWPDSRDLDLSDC
Chain of DAGLα (hDAGLα-FLAG) (Q9Y4D2 whole entry): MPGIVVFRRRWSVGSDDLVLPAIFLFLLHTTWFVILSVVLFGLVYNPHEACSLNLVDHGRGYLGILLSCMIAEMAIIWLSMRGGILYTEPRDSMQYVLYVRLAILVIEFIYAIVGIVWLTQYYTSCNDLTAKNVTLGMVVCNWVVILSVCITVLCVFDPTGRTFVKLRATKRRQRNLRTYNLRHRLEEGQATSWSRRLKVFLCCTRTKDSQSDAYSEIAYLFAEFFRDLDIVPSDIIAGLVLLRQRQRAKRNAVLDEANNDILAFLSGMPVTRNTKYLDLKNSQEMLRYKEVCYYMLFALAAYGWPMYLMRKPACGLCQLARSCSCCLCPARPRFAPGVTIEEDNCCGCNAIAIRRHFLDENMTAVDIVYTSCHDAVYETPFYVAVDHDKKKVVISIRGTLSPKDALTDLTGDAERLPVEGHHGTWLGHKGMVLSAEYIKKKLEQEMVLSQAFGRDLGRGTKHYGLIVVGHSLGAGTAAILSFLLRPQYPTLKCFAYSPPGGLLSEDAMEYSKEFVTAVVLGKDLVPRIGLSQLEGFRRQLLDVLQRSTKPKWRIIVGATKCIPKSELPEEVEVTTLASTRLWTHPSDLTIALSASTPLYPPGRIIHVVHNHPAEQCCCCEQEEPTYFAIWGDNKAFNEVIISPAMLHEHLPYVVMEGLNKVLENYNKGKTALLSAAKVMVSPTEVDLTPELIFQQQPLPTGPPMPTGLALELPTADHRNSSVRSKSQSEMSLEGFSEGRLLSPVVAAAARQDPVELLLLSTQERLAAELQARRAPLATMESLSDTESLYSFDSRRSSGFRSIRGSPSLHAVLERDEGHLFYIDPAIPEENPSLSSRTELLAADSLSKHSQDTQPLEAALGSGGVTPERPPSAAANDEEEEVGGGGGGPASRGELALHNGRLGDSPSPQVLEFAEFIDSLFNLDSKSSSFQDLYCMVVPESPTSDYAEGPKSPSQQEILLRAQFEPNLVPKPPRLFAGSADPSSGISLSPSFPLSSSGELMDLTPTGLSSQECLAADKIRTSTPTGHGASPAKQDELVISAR
Chain of ABHD6 (Q8R2Y0 whole entry): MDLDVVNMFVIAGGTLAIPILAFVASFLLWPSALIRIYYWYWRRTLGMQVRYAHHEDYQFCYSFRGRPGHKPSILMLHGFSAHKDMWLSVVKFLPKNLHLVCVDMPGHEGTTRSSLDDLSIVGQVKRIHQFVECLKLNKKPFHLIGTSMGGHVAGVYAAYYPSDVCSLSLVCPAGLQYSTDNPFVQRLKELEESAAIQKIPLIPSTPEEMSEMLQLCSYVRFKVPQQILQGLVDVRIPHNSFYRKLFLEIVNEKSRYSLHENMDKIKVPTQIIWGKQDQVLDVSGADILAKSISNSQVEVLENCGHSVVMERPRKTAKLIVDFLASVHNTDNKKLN
Chain of DAGLβ (hDAGLβ-FLAG) (Q8NCG7 whole entry): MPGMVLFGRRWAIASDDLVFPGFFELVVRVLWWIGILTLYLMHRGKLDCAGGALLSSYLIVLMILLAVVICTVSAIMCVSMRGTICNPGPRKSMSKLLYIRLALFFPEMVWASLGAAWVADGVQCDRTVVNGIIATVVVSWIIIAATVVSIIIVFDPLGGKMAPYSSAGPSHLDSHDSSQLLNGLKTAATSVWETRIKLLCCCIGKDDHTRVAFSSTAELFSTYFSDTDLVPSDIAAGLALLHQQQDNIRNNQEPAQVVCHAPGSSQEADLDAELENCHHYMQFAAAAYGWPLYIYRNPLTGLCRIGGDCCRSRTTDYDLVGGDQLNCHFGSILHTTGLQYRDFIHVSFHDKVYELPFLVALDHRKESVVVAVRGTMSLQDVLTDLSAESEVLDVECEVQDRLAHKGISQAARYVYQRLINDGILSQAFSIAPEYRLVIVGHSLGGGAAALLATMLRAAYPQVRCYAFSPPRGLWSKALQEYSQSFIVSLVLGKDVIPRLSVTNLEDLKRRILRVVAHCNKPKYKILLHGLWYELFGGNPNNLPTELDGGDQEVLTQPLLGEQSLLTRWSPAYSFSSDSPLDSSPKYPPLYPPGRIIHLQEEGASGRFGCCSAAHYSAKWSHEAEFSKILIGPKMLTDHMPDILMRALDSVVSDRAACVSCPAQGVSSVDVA
Chain of ABHD2 (Q9QXM0 whole entry): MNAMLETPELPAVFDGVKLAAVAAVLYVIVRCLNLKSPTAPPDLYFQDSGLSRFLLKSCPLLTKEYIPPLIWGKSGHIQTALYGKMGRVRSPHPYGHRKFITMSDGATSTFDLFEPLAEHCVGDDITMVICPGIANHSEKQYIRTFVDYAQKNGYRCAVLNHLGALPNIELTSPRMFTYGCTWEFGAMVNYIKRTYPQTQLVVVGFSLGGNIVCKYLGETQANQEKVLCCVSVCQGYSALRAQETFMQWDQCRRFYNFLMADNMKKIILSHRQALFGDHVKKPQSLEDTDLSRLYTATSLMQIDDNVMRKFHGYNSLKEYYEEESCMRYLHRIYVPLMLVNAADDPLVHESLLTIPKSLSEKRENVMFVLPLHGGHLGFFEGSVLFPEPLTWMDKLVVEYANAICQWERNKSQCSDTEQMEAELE
Chain of PLA2G7 (Q60963 22-440): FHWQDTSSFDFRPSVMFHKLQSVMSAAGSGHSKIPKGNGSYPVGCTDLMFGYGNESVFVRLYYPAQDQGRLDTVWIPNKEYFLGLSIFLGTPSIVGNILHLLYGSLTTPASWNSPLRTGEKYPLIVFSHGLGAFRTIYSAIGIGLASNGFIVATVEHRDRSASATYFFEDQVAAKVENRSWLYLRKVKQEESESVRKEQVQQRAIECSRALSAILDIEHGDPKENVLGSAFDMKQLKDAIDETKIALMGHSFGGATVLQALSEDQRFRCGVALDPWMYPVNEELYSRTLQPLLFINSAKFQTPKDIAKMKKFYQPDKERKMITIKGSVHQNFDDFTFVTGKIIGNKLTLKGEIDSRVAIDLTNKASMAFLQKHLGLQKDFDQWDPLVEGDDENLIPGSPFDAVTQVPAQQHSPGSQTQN

| Structure (SMILES) | IC50 [1] | IC50 [2] | inhibition of ABHD6 in vivo [6] | dose with full inhibition of DAGLα [7] | ED50 [7] | inhibition of DAGLβ in vivo [8] | time after injection at which depletion of brain 2-AG was observed [11] | brain 2-AG levels [11] | brain AA [11] | brain AEA [11] | brain C18:1/C20:4 DAG [11] | brain PGD2 [11] | brain PGE2 [11] | brain SAG [11] | IC50 [12] | other results |
| --- | --- | --- | --- | --- | --- | --- | --- | --- | --- | --- | --- | --- | --- | --- | --- | --- |
| C#CCO[C@@H]1CC[C@H](Cc2ccccc2)N(C(=O)n2ncc(C(O)(c3ccc(F)cc3)c3ccc(F)cc3)n2)C1 [Compound 14, ((2R,5R)-2-Benzyl-5-(prop-2-ynyloxy)piperidin-1-yl)(4-(bis(4-fluorophenyl)(hydroxy)methyl)-2H-1,2,3-triazol-2-yl)methanone] | ≤ 400 nM | ≤ 400 nM | inhibited | 30 to 50 mg/kg | 5 to 10 mg/kg | inhibited | ≤ 2 h | reduced | reductions | reductions | elevations | reductions | reductions | elevations | 1100 nM | IC50 [3]: 0.5 to 1.2 nM; IC50 [4]: 2.3 to 4.8 nM; IC50 [5]: > 1000 nM; labeling of DAGL enzymes in brain proteomes of treated mice [9]: direct, dose-dependent labeling; heavy/light ReDiMe ratio, LIPE (off-target) [10]: < 0.5 |
| CC(C)(C)OC(=O)N1CCN(C(=O)n2cc(-c3ccc(OC(F)(F)F)cc3)nn2)C(Cc2ccccc2)C1 (stereo not shown) [Compound 17, tert-Butyl 3-benzyl-4-(4-(4-(trifluoromethoxy)phenyl)-1H-1,2,3-triazole-1-carbonyl)piperazine-1-carboxylate] | ≤ 400 nM | ≤ 400 nM | inhibited | 30 to 50 mg/kg | 5 to 10 mg/kg | inhibited | ≤ 2 h | reduced | reductions | reductions | elevations | reductions | reductions | elevations | 180 nM | IC50 ([3]; mouse brain proteome, probes 1 μM, 30 min, read-out: IC50, DAGLα labeling by compound 58 and HT-01): 0.5 to 1.2 nM; IC50 ([4]; mouse brain proteome, probes 1 μM, 30 min, read-out: IC50, DAGLβ labeling by compound 58 and HT-01): 2.3 to 4.8 nM; IC50 ([5]; radioligand binding assay, read-out: IC50, CB2R binding): > 1000 nM; heavy/light ReDiMe ratio, ABHD2 (off-target) [13]: < 0.5; heavy/light ReDiMe ratio, PLA2G7 (off-target) [14]: < 0.5 |
